Laboratory results published in US10913773B2, “Bicyclic peptidyl inhibitor of tumor necrosis factor-alpha” (Ohio State Innovation Foundation, priority 2016, dated 2021).
Blank lines part the entries; values can stand above or below the molecule they belong to. Starred links: 1 amine or outer side, 2 acyl side, 3 side chain; linkers in the order of their positions; H or OH if unused. Positions of bridges follow the written chain, without caps; N, C: chain ends. Non-standard residues stand in square brackets, D forms with d. Residues, ends and D or L forms follow the SMILES beside them. Primed or numbered codes have the meaning given here. No end group written: not given here. *: point of attachment. FITC = O=C1OC2(c3ccc(O)cc3Oc3cc(O)ccc32)c2ccc(NC(=S)*)cc21; Trimesoyl = O=C(c1cc(C(=O)[*:2])cc(C(=O)[*:3])c1)[*:1]; trimesoyl″ = benzene-1,3,5-tricarbonyl scaffold; Phe(4-F) = N[C@@H](Cc1ccc(F)cc1)C(=O)O; trimesoyl = benzene-1,3,5-tricarbonyl; Nle = CCCC[C@H](N)C(=O)O; Dap = NC[C@H](N)C(=O)O; AEEA = NCCOCCOCC(=O)O; βAla = NCCC(=O)O

Assays:
Serum stability test = assay type: in vitro ADME, human; details: 37° C.
Protocol: Diluted human serum (25%) was centrifuged at 15,000 rpm for 10 min, and the supernatant was collected. A peptide stock solution was diluted into the supernatant to a final concentration of 5 μM and incubated at 37° C. At various time points (0-8 h), 200-μL aliquots were withdrawn and mixed with 50 μL of 15% trichloroacetic acid and 200 μL of acetonitrile. After incubation at 4° C. overnight, the mixture was centrifuged at 15,000 rpm for 10 min in a microcentrifuge, and the supernatant was analyzed by reversed-phase HPLC equipped with an analytical C18 column (Waters). The amount of remaining intact peptide (%, relative that of time zero control) was determined by integrating the area underneath the peptide peak (monitored at 214 nm).

TNFα-TNFR1 interaction = molecular target: T1, TNFα-TNFR1 interaction (Homo sapiens, UniProt P01375); test: ELISA inhibition of TNFα-TNFR1 interaction (immobilized biotinylated TNFα, TNFR1-HRP); assay type: binding; details: inhibition of TNFα-TNFR1 interaction, unlabeled peptides
T1 construct: made in house; host or cells: Escherichia coli (TNFα)
Protocol: Inhibition of TNFα-TNRF1 interaction by ELISA was carried out as previously described (Lian, W.; et al., supra).
Because of its high-throughput capability, FA analysis had been used to generate all of the SAR data described above. […] To confirm the SAR data obtained by FA analysis, some of the compounds in Table 5 (as well as new compounds) were resynthesized without the Lys(FITC) label and employed a more sensitive ELISA-based assay to determine the IC50 values for inhibition of the TNFα-TNFR1 interaction. Briefly, biotinylated TNFα was immobilized onto a NeutrAvidin-coated surface. TNFR1 conjugated with horseradish peroxidase (HRP) (0.5 nM) was added along with different concentrations of a peptide inhibitor. After washing, the amount of bound TNFR1-HRP was quantitated by ELISA. […] In agreement with the FA results, either extension at the C-terminus of β-Ala with another amino acid (C1-67 to C1-70) or side-chain modification of β-Ala (C1-71 to C1-73) decreased TNFα binding.

[1] = test system: TNFα-induced cell death in WEHI-13VAR fibroblasts (recombinant human TNFα); assay type: cell-based
Protocol: WEHI-13VAR fibroblasts were purchased from American Type Culture Collection (ATCC). For maintenance, cells were grown in full medium as RPMI-1640 supplemented with 10% FBS and 1% Abs. For toxicity assay, cells were seeded in a 96-well plate at a density of 5×10^3 cells/well in 100 μL of RPMI-1640/1% Abs supplemented with 10% or 5% FBS and allowed to grow overnight. Varying concentrations of recombinant human TNFα (0-250 ng/mL) or commercial mouse TNFα were (0-100 pg/mL) were incubated with 10 μM peptide and actinomycin D (1 μg/mL) in 100 μL of corresponding growth medium for 1 h at 37° C. Next, the medium in the 96-well plate was removed and replaced with the above fresh mixture and the cells were incubated overnight. Next day, 10 μL of the 3-(4, 5-dimethylthiazolyl-2)-2, 5-diphenyltetrazolium bromide (MTT, final concentration 0.5 mg/ml) was added to each well and incubated at 37° C. for 3 h, following by the addition of 100 μL of the MTT solubilization solution. The plate was kept in the incubator overnight to let the formazan crystals to completely dissolve, and the absorbance at 570 nm was measured on a TECAN plate reader. The LD50 was obtained as plotting the viability as a function of the TNFα concentration.
One of the biological functions of TNFα is to induce death signaling. Inhibitors against the TNFα-TNFR interaction are expected to protect cells against TNFα induced cell death. Therefore, anticachexin C1, C1-74, and C1-74-2 through C1-74-5 were compared for their ability to protect cultured WEHI-13 VAR fibroblasts, which are highly sensitive to TNFα in the presence of actinomycin-D, against TNFα-induced cell death (Khabar, K. S. A.; et al., “WEHI-13VAR: A Stable and Sensitive Variant of WEHI 164 Clone 13 Fibrosarcoma for Tumor Necrosis Factor Bioassay.” Immunol. Lett. 1995, 46:107-110). The cells were treated with a fixed concentration of peptides (10 μM) and varying concentrations of TNFα (0-1 μM), and the fraction of live cells was quantitated by the 3-(4,5-dimethylthiazol-2-yl)-2,5-diphenyltetrazolium bromide (MTT) assay. […] The MTT assay was also conducted at a fixed concentration of TNFα (0.4 ng/mL) but varying concentrations of peptides (0-10 μM).

[2] = molecular target: T2, Recombinant TNFα containing an N-terminal 13-aa ybbR tag (human, UniProt P01375 77-233, biotin at the ybbR tag in the ELISA assays); test: cell-based or functional assay
T2 sequence (P01375 77-233): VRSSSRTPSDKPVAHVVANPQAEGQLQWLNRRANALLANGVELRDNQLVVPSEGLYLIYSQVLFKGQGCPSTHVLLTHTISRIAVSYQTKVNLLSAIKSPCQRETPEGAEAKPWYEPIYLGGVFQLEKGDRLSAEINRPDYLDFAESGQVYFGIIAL

[3] = molecular target: Recombinant TNFα containing an N-terminal 13-aa ybbR tag (human) (UniProt P01375); test: FA, FITC-peptide + TNFα titration
Recombinant TNFα containing an N-terminal 13-aa ybbR tag (human), sequence (P01375 77-233): as above

[4] = molecular target: T2, Recombinant TNFα containing an …; test: ELISA, inhibition of TNFR1-HRP binding to immobilized biotin-TNFα
Excerpt: Because of its high-throughput capability, FA analysis had been used to generate all of the SAR data described above. […] Briefly, biotinylated TNFα was immobilized onto a NeutrAvidin-coated surface.

Molecule: CC(=O)[C@@H](Cc1ccccc1)NC(=O)[C@@H](C)NC(=O)C(N)Cc1ccc(F)c(F)c1 (stereo partly shown) [Compound C1-74-3]
IC50 (TNFα-TNFR1 interaction): 150 ± 43 nM
LD50 [1]: 2.6 ± 0.9 ng/mL

B1: C1-74 (peptide)
peptide: [Nle]Y[dA]KW[dH]G[dK]H[Dap][βAla]-NH2
modifications: linker N-4-10 via trimesoyl
notes: C1-66 with D-Ser3 reverted to D-Ala; also called bicyclic peptide C1-74
EC50 of protection of WEHI-13VAR cells from 0.4 ng/mL TNFα, MTT [2]: ~1000 nM

B2: C1-38 (peptide)
peptide: [Nle][Phe(4-F)][dS]K[Phe(4-F)][dH]G[dK]H[Dap]K(FITC)-NH2
modifications: linker (positions not given here) via trimesoyl; not fully specified (N-terminus, bridges)
Kd [3]: 2100 nM

Molecule: [Nle]Y[dS]KW[dH]G[dK]H[Dap][βAla]A-NH2 (linker N-4-10 via trimesoyl″, No Lys(FITC) label) [C1-68]
IC50 [4]: 2600 nM

B3: C1-56 (peptide)
peptide: [Nle]Y[dS]KW[dH]G[dK]H[Dap][dF][AEEA]K(FITC)-NH2
modifications: linker (positions not given here) via trimesoyl; not fully specified (N-terminus, bridges)
Kd [3]: 630 nM

Further lines, with some results ahead:

Time to complete degradation in human serum (Serum stability test): ≤ 2 h
half-life at 5 μM (Serum stability test; human, diluted human serum (25%), supernatant after centrifugation): ~15 min
Molecule: DRQIKIWFQNRRMKWKKTALDWSWLQTE [Antp-NBD]

IC50 (TNFα-TNFR1 interaction): 70 nM
Molecule: CCCC[C@@H]1NC(=O)c2cc3cc(c2)C(=O)NC[C@@H](C(=O)NCCC(N)=O)NC(=O)[C@H](Cc2c[nH]cn2)NC(=O)[C@@H](CCCCN)NC(=O)CNC(=O)[C@@H](Cc2c[nH]cn2)NC(=O)[C@H](Cc2c[nH]c4ccccc24)NC(=O)[C@H](CCCCNC3=O)NC(=O)[C@@H](C)NC(=O)[C@H](Cc2ccc(O)cc2)NC1=O [Compound C1-74] ([Nle]Y[dA]KW[dH]G[dK]H[Dap][βAla]-NH2; linker N-4-10 via Trimesoyl)
EC50 [1]: ~1000 nM
